The source made the active and inactive calls. The rule behind the calls is not given here.
Experiments:
[1] = test system: Mus musculus; experiment: Antinociceptive activity in mouse assessed as inhibition of tail flick at 20 nmol, icv in presence of opioid receptor antagonist naloxone; format: functional, organism-based
[2] = test system: Mus musculus; experiment: Antinociceptive activity in mouse prolonged tonic phase inflammatory pain model assessed as inhibition of formalin-induced licking/biting behavior at 16 mg/kg, iv in presence of opioid receptor antagonist naloxone; format: functional, organism-based
[3] = test system: Mus musculus; experiment: Antinociceptive activity in iv dosed mouse acute phase inflammatory pain model assessed as inhibition of formalin-induced licking/biting behavior; format: functional, organism-based
[4] = test system: Mus musculus; experiment: Antinociceptive activity in mouse assessed as inhibition of tail flick at 16 mg/kg, iv in presence of opioid receptor antagonist naloxone methiodide; format: functional, organism-based
[5] = test system: Mus musculus; experiment: Antinociceptive activity in mouse assessed as inhibition of tail flick at 4 to 16 mg/kg, iv measured at 60 mins relative to control; format: functional
[6] = target: T1, Mu-type opioid receptor (Homo sapiens, UniProt P35372); experiment: Displacement of [3H]-DAMGO from mu opioid receptor (unknown origin) transfected in HEK293 cells; format: cell-based
[7] = test system: Mus musculus; experiment: Antinociceptive activity in icv dosed mouse assessed as inhibition of tail flick measured at 5 to 60 mins; format: functional; settings: for ED50: central
[8] = species on record: Homo sapiens; experiment: Selectivity ratio of Ki for delta opioid receptor (unknown origin) to Ki for mu opioid receptor (unknown origin)
[9] = test system: Mus musculus; experiment: Antinociceptive activity in iv dosed mouse assessed as inhibition of tail flick measured at 5 to 60 mins; format: functional, organism-based
[10] = test system: Mus musculus; experiment: Antinociceptive activity in mouse assessed as inhibition of tail flick at 16 mg/kg, iv measured at 5 to 60 mins relative to control; format: functional
[11] = target: T1, Mu-type opioid receptor; experiment: Agonist activity at mu opioid receptor (unknown origin) transfected in HEK293 cells assessed as inhibition of forskolin-stimulated cAMP production; format: functional, cell-based
[12] = target: Delta-type opioid receptor (Homo sapiens, UniProt P41143); experiment: Displacement of [3H]-DPDPE from delta opioid receptor (unknown origin) transfected in HEK293 cells; format: cell-based
[13] = test system: Mus musculus; experiment: Antinociceptive activity in mouse assessed as inhibition of tail flick at 16 mg/kg, iv in presence of opioid receptor antagonist naloxone; format: functional, organism-based
[14] = test system: Mus musculus; experiment: Antinociceptive activity in iv dosed mouse prolonged tonic phase inflammatory pain model assessed as inhibition of formalin-induced licking/biting behavior; format: functional, organism-based
[15] = test system: Mus musculus; experiment: Antinociceptive activity in mouse assessed as inhibition of tail flick at 2 to 20 nmol, icv; format: functional, organism-based; settings: TDE = time-dependent effect
[16] = test system: Mus musculus; experiment: Antinociceptive activity in mouse acute phase inflammatory pain model assessed as inhibition of formalin-induced licking/biting behavior at 16 mg/kg, iv in presence of opioid receptor antagonist naloxone; format: functional, organism-based
[17] = test system: Mus musculus; experiment: Antinociceptive activity in mouse assessed as inhibition of tail flick at 4 mg/kg, iv measured at 5 to 60 mins; format: functional, organism-based
[18] = test system: Mus musculus; experiment: Antinociceptive activity in mouse assessed as inhibition of tail flick at 2 to 20 nmol, icv measured up to 30 mins relative to control; format: functional
[19] = test system: Mus musculus; experiment: Antinociceptive activity in mouse prolonged tonic phase inflammatory pain model assessed as inhibition of formalin-induced licking/biting behavior at 4 mg/kg, iv; format: functional, organism-based
[20] = test system: Mus musculus; experiment: Antinociceptive activity in mouse assessed as inhibition of tail flick at 2 to 20 nmol, icv measured after 30 mins; format: functional, organism-based
[21] = test system: Mus musculus; experiment: Antinociceptive activity in mouse acute phase inflammatory pain model assessed as inhibition of formalin-induced licking/biting behavior at 4 mg/kg, iv; format: functional, organism-based

T1 sequence (P35372 whole entry): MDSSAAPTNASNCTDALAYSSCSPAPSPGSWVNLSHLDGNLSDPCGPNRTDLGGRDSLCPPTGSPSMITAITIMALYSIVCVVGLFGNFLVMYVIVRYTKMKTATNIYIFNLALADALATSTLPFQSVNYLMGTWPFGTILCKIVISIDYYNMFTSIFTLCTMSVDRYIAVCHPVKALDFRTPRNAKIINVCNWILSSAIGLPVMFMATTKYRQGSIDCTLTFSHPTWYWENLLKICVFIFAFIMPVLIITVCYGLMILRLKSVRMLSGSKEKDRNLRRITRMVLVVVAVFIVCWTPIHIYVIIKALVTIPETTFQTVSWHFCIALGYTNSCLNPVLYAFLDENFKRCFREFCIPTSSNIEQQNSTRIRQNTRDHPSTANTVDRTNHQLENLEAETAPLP
Sequence of Delta-type opioid receptor (P41143 whole entry): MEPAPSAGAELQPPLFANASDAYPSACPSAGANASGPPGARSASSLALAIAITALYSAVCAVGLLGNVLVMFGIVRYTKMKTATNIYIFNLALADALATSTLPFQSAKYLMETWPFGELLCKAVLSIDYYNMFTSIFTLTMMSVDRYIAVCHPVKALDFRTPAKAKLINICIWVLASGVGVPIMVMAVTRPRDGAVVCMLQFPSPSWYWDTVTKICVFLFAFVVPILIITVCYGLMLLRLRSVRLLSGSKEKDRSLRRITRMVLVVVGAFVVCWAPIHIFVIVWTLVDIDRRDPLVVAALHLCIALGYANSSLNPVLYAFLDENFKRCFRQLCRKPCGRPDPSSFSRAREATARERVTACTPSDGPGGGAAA

| Compound | Activity [1] | Activity [2] | Activity [3] | Activity [4] | MPE [5] [%] | Ki [6] [nM] | Activity [7] | ED50 [7] [µmol/kg] | Ratio Ki [8] | Activity [9] | MPE [10] [%] | EC50 [11] [nM] | Emax [11] [%] | Ki [12] [nM] | Activity [13] | Activity [14] | Activity [15] | Activity [16] | also measured |
| --- | --- | --- | --- | --- | --- | --- | --- | --- | --- | --- | --- | --- | --- | --- | --- | --- | --- | --- | --- |
| C=C(C(N)=O)[C@H](NC(=O)[C@H](Cc1c[nH]c2ccccc12)NC(=O)[C@@H]1CCCN1C(=O)[C@@H](N)Cc1ccc(O)cc1)c1cccs1 | inactive | inactive | Dose-dependent effect | Active | 25 | 0.565 | Dose-dependent effect | 0.00207 | 21300 | Dose-dependent effect | 86.6 | 0.0629 | 98.2 | 12000 | inactive | Dose-dependent effect | tde | inactive | – |
| C=C(C(N)=O)[C@H](NC(=O)[C@H](Cc1c[nH]c2ccccc12)NC(=O)[C@@H]1CCCN1C(=O)[C@@H](N)Cc1ccc(O)cc1)c1ccsc1 | inactive | inactive | Dose-dependent effect | Active | 25 | 0.515 | Dose-dependent effect | 0.00223 | 25800 | Dose-dependent effect | 89.8 | 0.0643 | 97 | 13300 | inactive | Dose-dependent effect | tde | inactive | – |
| NC(=O)[C@H](Cc1ccccc1)NC(=O)[C@H](Cc1c[nH]c2ccccc12)NC(=O)[C@@H]1CCCN1C(=O)[C@@H](N)Cc1ccc(O)cc1 [ENDOMORPHIN-1] | – | – | – | – | – | – | – | – | – | – | – | – | – | – | – | – | – | – | Activity [17]: inactive; MPE [18]: 52.1%; Activity [19]: inactive; Activity [20]: inactive; Activity [21]: inactive |

— ChEMBL document CHEMBL3627650, “Design, synthesis, and evaluation of new endomorphin analogs with enhanced central antinociception after peripheral administration” (Bioorg Med Chem Lett, 2015)
